The values that follow are results of earlier work, collected in patent publication US9827328B2, “Combination therapy for treatment of cancer” (UNIVERSITY OF SOUTH ALABAMA, priority 2011, dated 2017).

Where two headings read alike, the source gives them in different places.

Data set [1] relates to patients with metastatic breast cancer.
Data set [2] relates to patients with advanced or metastatic breast cancer. The note with it: weekly nab-paclitaxel v every-three week Taxotere.

On to `CC(=O)O[C@H]1C(=O)[C@@]2(C)[C@H]([C@H](OC(=O)c3ccccc3)[C@]3(O)C[C@H](OC(=O)[C@H](O)[C@@H](NC(=O)c4ccccc4)c4ccccc4)C(C)=C1C3(C)C)[C@]1(OC(C)=O)CO[C@@H]1C[C@@H]2O` [Taxol, paclitaxel], for which, in data set [1] (all patients), the “incidence of hyperglycemia reported as adverse effect” value is listed as 7%. For the same molecule, the median survival in data set [1] (all patients) is 55.7 weeks; in data set [1] (second-line or greater therapy), 46.7 weeks. Besides, the “median time to tumor progression (TTP)” value in data set [1] (all patients) is reported as 16.9 weeks. Moreover, in data set [1] (all patients, ITT), the “overall response rate (ORR)” value is 19%. The “number of patients with persistent grade 3 sensory neuropathy” value in data set [1] (by day 28 after first occurrence) is 4. Further, the “episodes of motor neuropathy or grade 4 sensory neuropathy” value in data set [1] (in vivo) is “No episodes”. Moreover, the “incidence of treatment-related grade 4 neutropenia” value in data set [1] (in vivo) was 22%. Further, the mean neutrophil nadir in data set [1] (in vivo) is 1.31e+09 L⁻¹. For the same molecule, the “treatment-related grade 3 sensory neuropathy” value in data set [1] (in vivo) was 2%. In data set [1] (nab-paclitaxel without premedication, Taxol with standard premedication), the “severe (grade 3 or 4) treatment-related hypersensitivity reactions” value is recorded as “grade 3 hypersensitivity reactions occurred”. Further, the tumor response rate in data set [1] (patients aged younger than 65 years) and in data set [1] (patients with visceral dominant lesions) was 19% each time. The ORR in data set [1] (patients who received first-line therapy) was 27%; in data set [1] (patients with nonvisceral dominant lesions), 19%; in data set [1] (patients ≧65 years old) it was 19%; in data set [1] (prior anthracycline therapy, adjuvant/metastatic setting), 18%; in data set [1] (prior anthracycline therapy, metastatic setting only), 14%; in data set [1] (second-line or greater therapy) it was 13%.

With `CC(=O)O[C@@]12CO[C@@H]1C[C@H](O)[C@@]1(C)C(=O)[C@H](O)C3=C(C)[C@@H](OC(=O)[C@H](O)[C@@H](NC(=O)OC(C)(C)C)c4ccccc4)C[C@@](O)([C@@H](OC(=O)c4ccccc4)[C@H]21)C3(C)C` [Taxotere, docetaxel], the “rate of grade 4 neutropenia” value in data set [2] is 75%.
